Assay results taken from PubChem BioAssay (NCI).
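Step 1: Grow cells in 96-well plates. Step 2: Expose to compound for 48 hours at 5 concentrations. Step 3: Interpolate endpoints linearly; if unreached, use highest concentration. GI50 is the concentration that inhibits growth by half. Definition used: TGI = concentration required for complete inhibition of growth.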

How the values were obtained:
Experiment in all cases: NCI anticancer screen, dose series, 48 h
786-0 renal = system: 786-0 renal
A498 renal = system: A498 renal
A549 NSCLC = system: A549 NSCLC
ACHN renal = system: ACHN renal
BT-549 breast = system: BT-549 breast
CAKI-1 renal = system: CAKI-1 renal
CCRF-CEM leukemia = system: CCRF-CEM leukemia
COLO 205 colon = system: COLO 205 colon
DU-145 prostate = system: DU-145 prostate
EKVX NSCLC = system: EKVX NSCLC
HCC-2998 colon = system: HCC-2998 colon
HCT-116 colon = system: HCT-116 colon
HCT-15 colon = system: HCT-15 colon
HL-60(TB) leukemia = system: HL-60(TB) leukemia
HOP-62 NSCLC = system: HOP-62 NSCLC
HOP-92 NSCLC = system: HOP-92 NSCLC
HS 578T breast = system: HS 578T breast
HT29 colon = system: HT29 colon
IGROV1 ovarian = system: IGROV1 ovarian
K-562 leukemia = system: K-562 leukemia
KM12 colon = system: KM12 colon
LOX IMVI melanoma = system: LOX IMVI melanoma
M14 melanoma = system: M14 melanoma
MALME-3M melanoma = system: MALME-3M melanoma
MCF7 breast = system: MCF7 breast
MDA-MB-231 breast = system: MDA-MB-231 breast
MDA-MB-435 = system: MDA-MB-435
MOLT-4 leukemia = system: MOLT-4 leukemia
NCI-H226 lung = system: NCI-H226 lung
NCI-H23 lung = system: NCI-H23 lung
NCI-H460 lung = system: NCI-H460 lung
NCI-H522 lung = system: NCI-H522 lung
NCI/ADR-RES ovarian = system: NCI/ADR-RES ovarian
OVCAR-3 ovarian = system: OVCAR-3 ovarian
OVCAR-4 ovarian = system: OVCAR-4 ovarian
OVCAR-5 ovarian = system: OVCAR-5 ovarian
OVCAR-8 ovarian = system: OVCAR-8 ovarian
PC-3 prostate = system: PC-3 prostate
RPMI-8226 leukemia = system: RPMI-8226 leukemia
RXF 393 renal = system: RXF 393 renal
SF-268 CNS = system: SF-268 CNS
SF-295 CNS = system: SF-295 CNS
SF-539 CNS = system: SF-539 CNS
SK-MEL-2 melanoma = system: SK-MEL-2 melanoma
SK-MEL-28 melanoma = system: SK-MEL-28 melanoma
SK-MEL-5 melanoma = system: SK-MEL-5 melanoma
SK-OV-3 ovarian = system: SK-OV-3 ovarian
SN12C renal = system: SN12C renal
SNB-19 CNS = system: SNB-19 CNS
SNB-75 CNS = system: SNB-75 CNS
SR leukemia = system: SR leukemia
SW-620 colon = system: SW-620 colon
T-47D breast = system: T-47D breast
TK-10 renal = system: TK-10 renal
U251 CNS = system: U251 CNS
UACC-257 melanoma = system: UACC-257 melanoma
UACC-62 melanoma = system: UACC-62 melanoma
UO-31 renal = system: UO-31 renal

CN1CCN(Cc2ccc(NC(=O)c3cncc(C#Cc4cnc5ccc(N6CCN(C)CC6)nn45)c3)cc2C(F)(F)F)CC1
GI50 (786-0 renal): 1550 nM
TGI (786-0 renal): 3.11 µM
GI50 (A498 renal): 2130 nM
TGI (A498 renal): 3.61 µM
GI50 (A549 NSCLC): 1620 nM
TGI (A549 NSCLC): 3.91 µM
GI50 (ACHN renal): 1330 nM
TGI (ACHN renal): 2620 nM
GI50 (BT-549 breast): 1440 nM
TGI (BT-549 breast): 2880 nM
GI50 (CAKI-1 renal): 1670 nM
TGI (CAKI-1 renal): 3.28 µM
GI50 (CCRF-CEM leukemia): 1940 nM
TGI (CCRF-CEM leukemia): 6.47 µM
GI50 (COLO 205 colon): 1580 nM
TGI (COLO 205 colon): 3.63 µM
GI50 (DU-145 prostate): 1590 nM
TGI (DU-145 prostate): 2940 nM
GI50 (EKVX NSCLC): 1300 nM
TGI (EKVX NSCLC): 2840 nM
GI50 (HCC-2998 colon): 1640 nM
TGI (HCC-2998 colon): 3.05 µM
GI50 (HCT-116 colon): 1050 nM
TGI (HCT-116 colon): 2620 nM
GI50 (HCT-15 colon): 1430 nM
TGI (HCT-15 colon): 3.37 µM
GI50 (HL-60(TB) leukemia): 2180 nM
TGI (HL-60(TB) leukemia): 4.11 µM
GI50 (HOP-62 NSCLC): 2060 nM
TGI (HOP-62 NSCLC): 7.02 µM
GI50 (HOP-92 NSCLC): 1340 nM
TGI (HOP-92 NSCLC): 8.48 µM
GI50 (HS 578T breast): 1710 nM
TGI (HS 578T breast): 6.57 µM
GI50 (HT29 colon): 1180 nM
TGI (HT29 colon): 3.43 µM
GI50 (IGROV1 ovarian): 1750 nM
TGI (IGROV1 ovarian): 4.16 µM
GI50 (K-562 leukemia): 57.6 nM
TGI (K-562 leukemia): 1630 nM
GI50 (KM12 colon): 29.2 nM
TGI (KM12 colon): 1390 nM
GI50 (LOX IMVI melanoma): 1160 nM
TGI (LOX IMVI melanoma): 2420 nM
GI50 (M14 melanoma): 1580 nM
TGI (M14 melanoma): 3.24 µM
GI50 (MALME-3M melanoma): 2570 nM
TGI (MALME-3M melanoma): 11.2 µM
GI50 (MCF7 breast): 835 nM
TGI (MCF7 breast): 2400 nM
GI50 (MDA-MB-231 breast): 751 nM
TGI (MDA-MB-231 breast): 2350 nM
GI50 (MDA-MB-435): 1410 nM
TGI (MDA-MB-435): 3.06 µM
GI50 (MOLT-4 leukemia): 1330 nM
TGI (MOLT-4 leukemia): 3.51 µM
GI50 (NCI-H226 lung): 436 nM
TGI (NCI-H226 lung): 10.7 µM
GI50 (NCI-H23 lung): 1370 nM
TGI (NCI-H23 lung): 2960 nM
GI50 (NCI-H460 lung): 1870 nM
TGI (NCI-H460 lung): 4.05 µM
GI50 (NCI-H522 lung): 1440 nM
TGI (NCI-H522 lung): 2960 nM
GI50 (NCI/ADR-RES ovarian): 1810 nM
TGI (NCI/ADR-RES ovarian): 3.64 µM
GI50 (OVCAR-3 ovarian): 2150 nM
TGI (OVCAR-3 ovarian): 4.11 µM
GI50 (OVCAR-4 ovarian): 1230 nM
TGI (OVCAR-4 ovarian): 3.01 µM
GI50 (OVCAR-5 ovarian): 1830 nM
TGI (OVCAR-5 ovarian): 4.22 µM
GI50 (OVCAR-8 ovarian): 1760 nM
TGI (OVCAR-8 ovarian): 3.63 µM
GI50 (PC-3 prostate): 1660 nM
TGI (PC-3 prostate): 5.1 µM
GI50 (RPMI-8226 leukemia): 2050 nM
TGI (RPMI-8226 leukemia): 7.41 µM
GI50 (RXF 393 renal): 786 nM
TGI (RXF 393 renal): 2080 nM
GI50 (SF-268 CNS): 1530 nM
TGI (SF-268 CNS): 3.2 µM
GI50 (SF-295 CNS): 1470 nM
TGI (SF-295 CNS): 2980 nM
GI50 (SF-539 CNS): 414 nM
TGI (SF-539 CNS): 1740 nM
GI50 (SK-MEL-2 melanoma): 10.7 µM
TGI (SK-MEL-2 melanoma): 23.3 µM
GI50 (SK-MEL-28 melanoma): 11.9 µM
TGI (SK-MEL-28 melanoma): 24.4 µM
GI50 (SK-MEL-5 melanoma): 1530 nM
TGI (SK-MEL-5 melanoma): 2910 nM
GI50 (SK-OV-3 ovarian): 15 µM
TGI (SK-OV-3 ovarian): 30.7 µM
GI50 (SN12C renal): 1150 nM
TGI (SN12C renal): 2560 nM
GI50 (SNB-19 CNS): 2290 nM
TGI (SNB-19 CNS): 4.63 µM
GI50 (SNB-75 CNS): 1490 nM
TGI (SNB-75 CNS): 2950 nM
GI50 (SR leukemia): 781 nM
TGI (SR leukemia): 2920 nM
GI50 (SW-620 colon): 2120 nM
TGI (SW-620 colon): 6.99 µM
GI50 (T-47D breast): 18 µM
TGI (T-47D breast): 41.8 µM
GI50 (TK-10 renal): 2060 nM
TGI (TK-10 renal): 4.29 µM
GI50 (U251 CNS): 1660 nM
TGI (U251 CNS): 3.32 µM
GI50 (UACC-257 melanoma): 4.98 µM
TGI (UACC-257 melanoma): 18.8 µM
GI50 (UACC-62 melanoma): 14.5 µM
TGI (UACC-62 melanoma): 27.8 µM
GI50 (UO-31 renal): 3.75 µM
TGI (UO-31 renal): 14.5 µM
